Here are results for 57 compounds from article PMC12390684 (Viruses, 2025).

Structures are written as SMILES.

The experiment concerns the target IN-GCN2 interaction (6xHis-IN / GST-GCN2) (UniProt P04585+Q9P2K8). Briefly: biochemical. The experiment is classed as binding, HIV-1 IN; human GCN2. As to conditions: screen, single dose 100 µM, single replicate, residual AlphaLISA signal normalized to DMSO control. For orientation: Bead proximity is the source of the signal in Alpha formats.

Sequence of IN-GCN2 interaction (6xHis-IN / GST-GCN2) (Q9P2K8 192-1024, other chains not shown): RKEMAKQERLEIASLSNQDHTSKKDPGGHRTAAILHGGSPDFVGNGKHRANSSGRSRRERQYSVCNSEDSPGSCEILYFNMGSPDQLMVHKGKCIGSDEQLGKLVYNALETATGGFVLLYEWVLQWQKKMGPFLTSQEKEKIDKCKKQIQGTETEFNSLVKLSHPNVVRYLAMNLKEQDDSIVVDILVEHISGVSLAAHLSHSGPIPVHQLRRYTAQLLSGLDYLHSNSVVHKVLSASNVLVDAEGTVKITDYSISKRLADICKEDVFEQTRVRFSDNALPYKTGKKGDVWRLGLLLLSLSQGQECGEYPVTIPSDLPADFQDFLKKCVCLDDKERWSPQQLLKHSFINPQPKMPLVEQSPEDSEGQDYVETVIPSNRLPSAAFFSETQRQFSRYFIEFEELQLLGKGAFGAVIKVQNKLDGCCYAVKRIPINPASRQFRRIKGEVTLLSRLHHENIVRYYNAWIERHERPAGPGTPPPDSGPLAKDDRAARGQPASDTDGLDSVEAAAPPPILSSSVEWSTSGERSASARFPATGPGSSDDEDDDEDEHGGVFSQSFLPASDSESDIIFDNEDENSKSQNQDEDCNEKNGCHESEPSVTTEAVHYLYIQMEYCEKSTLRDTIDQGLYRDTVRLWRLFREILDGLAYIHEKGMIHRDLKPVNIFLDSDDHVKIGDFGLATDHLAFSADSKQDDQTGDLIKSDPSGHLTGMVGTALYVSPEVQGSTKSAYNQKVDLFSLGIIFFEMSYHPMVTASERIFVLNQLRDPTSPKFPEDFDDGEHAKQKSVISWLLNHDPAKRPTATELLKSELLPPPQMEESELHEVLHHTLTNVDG

For the compound `CO[C@@H]1[C@H](O)C[C@@H](O[C@H]2[C@@H](C)O[C@@H](Oc3cc(O)c4c(O)c5c(cc4c3)C[C@@H]([C@H](OC)C(=O)[C@@H](O)[C@@H](C)O)[C@H](O[C@H]3C[C@@H](O[C@H]4C[C@@H](O[C@H]6C[C@](C)(O)[C@@H](OC(=O)C(C)C)[C@H](C)O6)[C@H](O)[C@@H](C)O4)[C@H](O)[C@@H](C)O3)C5=O)C[C@H]2OC(C)=O)O[C@@H]1C` [NSC38270], the “IN-GCN2 interaction (%)” value turned out to be 113.18%.

For `COc1cc2c(cc1OC)CN1CCc3cc(OC)c(OC)cc3C1C2` (stereo not drawn) [NSC10105], the “IN-GCN2 interaction (%)” value amounted to 96.86%.

For the compound `COC(=O)[C@]1(C)CCC[C@]2(C)C3=CC(=O)[C@@]4(C(C)C)O[C@H]4[C@]3(O)CC[C@@H]12` [NSC337783], the “IN-GCN2 interaction (%)” value was 100.26%.

As for `COc1cc(/C=N\O)nc(-c2ccccn2)c1` [NSC114341], the “IN-GCN2 interaction (%)” value is reported as 45.21%.

On to `C[C@]12CCC(=O)[C@](C)(CO)[C@@H]1CC[C@@]13C[C@@H](CC[C@@H]12)[C@@H](C(=O)O)C3` [NSC83439], for which the “IN-GCN2 interaction (%)” value is recorded as 107.59%.

As for `CO[C@H]1/C=C\C=C(/C)C(=O)NC2=CC(=O)C(N)=C(C[C@@H](C)C[C@H](OC)[C@H](O)[C@@H](C)/C=C(\C)[C@@H]1OC(N)=O)C2=O` [NSC255109], the “IN-GCN2 interaction (%)” value amounted to 108.78%.

With `O=C(O)/C=C/CC[C@@H]1SC[C@@H]2NC(=O)N[C@@H]21` [NSC127473], the “IN-GCN2 interaction (%)” value is given as 109.13%.

Turning to `COc1ccc(/C=C/C(=O)c2ccccc2)cc1` [NSC11866], the “IN-GCN2 interaction (%)” value is listed as 81.82%.

In the case of `C[C@H]1O[C@@H](c2ccc3c(c2O)C(=O)C2=C(C3=O)[C@@]3(O)C(=O)C[C@](C)(O)C[C@@]3(O)C=C2)C[C@@H](O)[C@@H]1O` [NSC184398], the “IN-GCN2 interaction (%)” value came out at 10.15%.

In the case of `Nc1ncn([C@@H]2O[C@H](CO)[C@@H](O)[C@H]2O)c(=O)n1` [NSC102816], the “IN-GCN2 interaction (%)” value is listed as 106.78%.

As for `CN1[C@@H]2CC[C@H]1CC(O)C2` (stereo partly drawn) [NSC43871], the “IN-GCN2 interaction (%)” value came to 99.50%.

`CCC/C=C/C=C/C(=O)O[C@H]1/C(=C/C(=O)OC)C[C@H]2C[C@H]([C@@H](C)O)OC(=O)C[C@H](O)C[C@@H]3C[C@H](OC(C)=O)C(C)(C)[C@](O)(C[C@@H]4C/C(=C/C(=O)OC)C[C@H](/C=C/C(C)(C)[C@]1(O)O2)O4)O3` [NSC339555]: the “IN-GCN2 interaction (%)” value turned out to be 32.23%.

On to `O=c1ccn([C@H]2C[C@H](O)[C@@H](CO)O2)c(=O)[nH]1` [NSC23615], for which the “IN-GCN2 interaction (%)” value stood at 82.13%.

On to `COc1cc([C@@H]2c3cc4c(cc3[C@H](O)[C@H]3COC(=O)[C@@H]23)OCO4)cc(OC)c1OC` [NSC36407], for which the “IN-GCN2 interaction (%)” value is recorded as 109.04%.

For the compound `O=C(O)C1(O)C[C@@H](O)C(O)[C@H](O)C1` (stereo partly drawn) [NSC59258], for the setting “listed as 59258”, the “IN-GCN2 interaction (%)” value is 71.78%.

Turning to `COc1cc2c(c(OC)c1OC)-c1ccc(OC)c(=O)cc1[C@@H](NC(=O)c1ccccc1)CC2` [NSC33410], the “IN-GCN2 interaction (%)” value was found to be 67.25%.

In the case of `O=C1C(O)=C(c2ccccc2)C(=O)C(O)=C1c1ccccc1` [NSC44175], the “IN-GCN2 interaction (%)” value was found to be 117.13%.

As for `O=C1CC=C2C3CC4N(CCC45c4ccccc4N1C25)C/C3=C\CO` (stereo not drawn) [NSC99791], the “IN-GCN2 interaction (%)” value was 109.54%.

Turning to `CC1=CC(O)C(O)C2(C)C1CC1OC(=O)C(O)C3C(C)C(O)C4(O)OCC13C42` (stereo not drawn) [NSC14974], the “IN-GCN2 interaction (%)” value is listed as 90.88%.

Take `CC(C)=CC(=O)O[C@H]1[C@H]2[C@H](OC(=O)[C@H]2C)[C@H](O)[C@@H](C)[C@@H]2C=CC(=O)[C@]21C` [NSC176503]: the “IN-GCN2 interaction (%)” value worked out at 99.27%.

Regarding `CCc1c2c(nc3ccc(OC(=O)N4CCC(N5CCCCC5)CC4)cc13)-c1cc3c(c(=O)n1C2)COC(=O)[C@]3(O)CC` [NSC616348], the “IN-GCN2 interaction (%)” value is reported as 97.94%.

As for `COc1cc2c(cc1OC)[C@@]13CCN4CC5=CCO[C@H]6CC(=O)N2[C@H]1[C@H]6[C@H]5C[C@]43O` [NSC99794], the “IN-GCN2 interaction (%)” value was 103.59%.

On to `O=C(O)CC(CC(=O)O)C(=O)O` [NSC2347], for which the “IN-GCN2 interaction (%)” value was determined as 84.06%.

On to `O=C(O)/C=C(/CC(=O)O)C(=O)O` [NSC7616], for which the “IN-GCN2 interaction (%)” value worked out at 85.71%.

`COc1ccc2c(c1)O[C@H]1c3ccc(O)cc3OC[C@@H]21` [NSC350085]: the “IN-GCN2 interaction (%)” value worked out at 73.66%.

Consider `COc1cc2oc3cc(=O)cc4oc(-c5ccccc5)cc(c2c2c1CCC(c1ccccc1)O2)c43` (stereo not drawn) [NSC376248], for which the “IN-GCN2 interaction (%)” value was found to be 71.04%.

In the case of `CC1CCC2C(C)C3C(CC4C5CC=C6CC(OC7OC(CO)C(O)C(OC8OC(CO)C(O)C(O)C8O)C7OC7OC(C)C(O)C(O)C7O)CCC6(C)C5CCC43C)N2C1.Cl` (stereo not drawn) [NSC35611], the “IN-GCN2 interaction (%)” value is 109.39%.

On to `CO[C@H]1C[C@@H]2CC[C@@H](C)[C@@](O)(O2)C(=O)C(=O)N2CCCC[C@H]2C(=O)O[C@H]([C@H](C)C[C@@H]2CC[C@@H](O)[C@H](OC)C2)CC(=O)[C@H](C)/C=C(\C)[C@@H](O)[C@@H](OC)C(=O)[C@H](C)C[C@H](C)/C=C/C=C/C=C/1C` [NSC226080], for which the “IN-GCN2 interaction (%)” value was found to be 54.18%.

In the case of `CC(=O)Oc1ccc2ccc(=O)oc2c1OC(C)=O` [NSC301683], the “IN-GCN2 interaction (%)” value was determined as 152.96%.

As for `COc1cc2cc(c1Cl)N(C)C(=O)C[C@H](OC(=O)C(C)C)[C@]1(C)O[C@H]1[C@H](C)[C@@H]1C[C@@](O)(NC(=O)O1)[C@H](OC)/C=C/C=C(\C)C2` [NSC292222], the “IN-GCN2 interaction (%)” value was found to be 93.28%.

On to `NC(=S)c1cn(C2OC(CO)C(O)C2O)c2ncnc(N)c12` (stereo not drawn) [NSC105827], for which the “IN-GCN2 interaction (%)” value was found to be 100.77%.

As to `CC(=O)C(=O)N[C@@H]1/C=C(C)/C=C/[C@@H](O)C/C=C(C)/C=C/[C@@H](O)C[C@H]2OC(=O)[C@]1(C)C(=O)[C@@H]2C` [NSC145118], the “IN-GCN2 interaction (%)” value was 98.66%.

With `O=C1N[C@@H]2C(=C[C@H](O)[C@@H](O)[C@H]2O)c2cc3c(cc21)OCO3` [NSC349155], the “IN-GCN2 interaction (%)” value worked out at 100.93%.

Take `C[C@@H]1C[C@H]2OC(=O)[C@@]3(C)CCC[C@@](C)([C@@H]23)[C@@]1(O)CCc1ccoc1` [NSC36693]: the “IN-GCN2 interaction (%)” value is on record as 92.00%.

As for `C[C@@H]1CC[C@H]2[C@@H](C)C(=O)O[C@@H]3O[C@@]4(C)CC[C@@H]1[C@]32OO4` [NSC369397], the “IN-GCN2 interaction (%)” value is given as 101.56%.

On to `CC1(C)C(CC(=O)O)CC1C(=O)O` (stereo not drawn) [NSC2802], for which the “IN-GCN2 interaction (%)” value was determined as 86.94%.

Regarding `CN(N=O)C(=O)N[C@@H](C=O)[C@@H](O)[C@H](O)[C@H](O)CO` [NSC85998], the “IN-GCN2 interaction (%)” value was determined as 75.18%.

For `C[C@]12CC[C@H]3[C@@H](CC[C@]4(O)C[C@@H](O)CC[C@]34/C=N/O)[C@@]1(O)CC[C@@H]2C1=COC(=O)C1` [NSC93373], the “IN-GCN2 interaction (%)” value is listed as 116.21%.

For the compound `Cc1cc2nc3[nH]c(=O)[nH]c(=O)c3nc2cc1C` [NSC96911], the “IN-GCN2 interaction (%)” value worked out at 89.81%.

On to `COc1cc(O)c(C(C)=O)c2c1C=CC(C)(C)O2` [NSC14135], for which the “IN-GCN2 interaction (%)” value is recorded as 87.24%.

Turning to `CO[C@@H]1[C@@H](O[C@@H]2O[C@H](C)[C@@H](O[C@H]3C[C@@](C)(O)[C@@H](OC(=O)CC(C)C)[C@H](C)O3)[C@H](N(C)C)[C@H]2O)[C@@H](CC=O)C[C@@H](C)C(=O)/C=C/[C@@H]2O[C@H]2C[C@@H](C)OC(=O)C[C@H]1OC(C)=O` [NSC51001], the “IN-GCN2 interaction (%)” value came out at 99.20%.

As to `COc1c(OC)c(OC)c2c3c(cc4ccccc42)NC(=O)C(=O)c13` [NSC785151], the “IN-GCN2 interaction (%)” value came to 48.18%.

Consider `O=c1cc(-c2ccccc2)oc2ccccc12` [NSC19028], for which the “IN-GCN2 interaction (%)” value is 58.68%.

As to `C=C1C(=O)O[C@@H]2/C=C(/CO)CC/C=C(/CO)C[C@@H](OC(=O)C(C)C)[C@@H]12` [NSC295426], the “IN-GCN2 interaction (%)” value is 56.21%.

Turning to `C[C@H]1O[C@@H](O[C@H]2[C@@H](O)C[C@H](O[C@H]3[C@@H](O)C[C@H](O[C@H]4CC[C@@]5(C)[C@H](CC[C@@H]6[C@@H]5CC[C@]5(C)[C@@H](C7=CC(=O)OC7)[C@@H](O)C[C@]65O)C4)O[C@@H]3C)O[C@@H]2C)C[C@H](O)[C@@H]1O` [NSC95099], the “IN-GCN2 interaction (%)” value is listed as 127.68%.

On to `COc1ccc(C[C@@H]2NC[C@@H](O)[C@@H]2OC(C)=O)cc1.Cl` [NSC147340], for which the “IN-GCN2 interaction (%)” value was found to be 88.95%.

Consider `COC(=O)[C@H]1[C@H]2C[C@@H]3c4[nH]c5ccccc5c4CCN3C[C@H]2C[C@@H](OC(=O)c2cc(OC)c(OC)c(OC)c2)[C@@H]1OC` [NSC72138], for which the “IN-GCN2 interaction (%)” value was determined as 30.11%.

As to `COc1ccc2c(c1OC)-c1c(OC)c(OC)cc3c1[C@H](C2)NCC3` [NSC785187], the “IN-GCN2 interaction (%)” value is on record as 70.21%.

With `COc1c2c(c3c(c1OC)c(=O)c1ccccc1n3C)OCO2` [NSC34758], the “IN-GCN2 interaction (%)” value was found to be 105.30%.

In the case of `NC(=O)NCCC[C@H](N)C(=O)O` [NSC27425], the “IN-GCN2 interaction (%)” value is 90.90%.

Take `COC(=O)[C@@H]1[C@H](O)[C@H](C)[C@H](O)[C@H](C)/C=C\C=C(/C)C(=O)Nc2c(C)c(OC(C)=O)c3c(c2O)C(=O)C(C)=C2OCOC(=C23)/C(C)=C/[C@@](C)(O)[C@H](O)[C@@H](C)[C@H]1O` [NSC19990]: the “IN-GCN2 interaction (%)” value was determined as 69.46%.

For `CC(C)(O)[C@@H]1[C@H]2OC(=O)[C@@H]1[C@]1(O)C[C@H]3O[C@]34C(=O)O[C@H]2[C@]14C` [NSC129536], the “IN-GCN2 interaction (%)” value was 112.62%.

As for `COc1ccc2c(c1O)-c1cccc3c1[C@@H](C2)N(C)CC3` [NSC785152], the “IN-GCN2 interaction (%)” value is 66.28%.

On to `COc1c(OC)c2c3c(nccc3c1OC)-c1cc(=O)c(OC)ccc1-2` [NSC785144], for which the “IN-GCN2 interaction (%)” value was found to be 14.73%.

`CC1(C)Oc2cc3oc(=O)ccc3c3c2C2C1CCC(C)(O3)C2O` (stereo not drawn) [NSC83433]: the “IN-GCN2 interaction (%)” value was 78.75%.

In the case of `C[C@]12CC[C@@H]3c4ccc(O)cc4CC[C@H]3[C@@H]1CCC2=O` [NSC9699], the “IN-GCN2 interaction (%)” value turned out to be 98.84%.

For `CC1(C)CCC2=C(O1)C(=O)c1ccccc1C2=O` [NSC26327], the “IN-GCN2 interaction (%)” value came to 99.02%.
